The record followed here is patent US11731958B2, “Carboxamide compounds and uses thereof” (Incyte Corporation, priority 2018, dated 2023).

The Ki is the equilibrium dissociation constant of an inhibitor or competing ligand from its target. A low value points to tighter binding.

Molecules are shown by their SMILES.

HPK1, sequence (Q92918 1-346): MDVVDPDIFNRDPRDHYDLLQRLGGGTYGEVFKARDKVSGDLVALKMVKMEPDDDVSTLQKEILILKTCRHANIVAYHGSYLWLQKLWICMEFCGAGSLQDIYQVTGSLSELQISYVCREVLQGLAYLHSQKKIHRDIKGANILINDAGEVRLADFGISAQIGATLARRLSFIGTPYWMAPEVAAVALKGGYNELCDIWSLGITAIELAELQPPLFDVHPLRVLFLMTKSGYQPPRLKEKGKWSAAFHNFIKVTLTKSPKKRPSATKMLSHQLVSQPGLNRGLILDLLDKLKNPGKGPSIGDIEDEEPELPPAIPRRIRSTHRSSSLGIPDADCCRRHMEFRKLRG

This experiment concerns the target HPK1 (Homo sapiens (Human), UniProt Q92918). The experiment in a line: HPK1 Kinase Binding Assay. The conditions noted are these: LanthaScreen tracer 222 binding, active HPK1, one hour at 25° C. Here is the method: A stock solution of 1 mM test compound was prepared in DMSO. The compound plate was prepared by 3-fold and 11-point serial dilutions. 0.1 μL of the compound in DMSO was transferred from the compound plate to the white 384 well polystyrene plates. The assay buffer contained 50 mM HEPES, pH 7.5, 0.01% Tween-20, 5 mM MgCl2, 0.01% BSA, and 5 mM DTT. 5 μL of 4 nM active HPK1 (SignalChem M23-11G) prepared in the buffer was added to the plate. The enzyme concentration given was based on the given stock concentration reported by the vender. […] After one hour incubation at 25° C., the plates were read on a PHERAstar FS plate reader (BMG Labtech). Ki values were determined.
In general terms: Time-resolved FRET reads energy transfer from a long-lived donor to a nearby acceptor.
For `COc1cccc(F)c1-c1nccc(C(=O)Nc2cc(F)c(N3CCOCC3)cc2N2C[C@@H]3C[C@H]2CN3)n1` [Example 28, N-(2-((1S,4S)-2,5-Diazabicyclo[2.2.1]heptan-2-yl)-5-fluoro-4-morpholinophenyl)-2-(2-fluoro-6-methoxyphenyl)pyrimidine-4-carboxamide], the Ki is below 100 nM.

Molecule `COc1cccc(F)c1-c1nccc(C(=O)Nc2ccc(-c3c(C)nn(C)c3C)cc2N2C[C@@H]3C[C@H]2CN3)n1` [Example 27, N-(2-((1S,4S)-2,5-Diazabicyclo[2.2.1]heptan-2-yl)-4-(1,3,5-trimethyl-1H-pyrazol-4-yl)phenyl)-2-(2-fluoro-6-methoxyphenyl)pyrimidine-4-carboxamide] had a Ki below 100 nM.

`COc1cccc(F)c1-c1nccc(C(=O)Nc2cc(F)c(CN3CCOCC3)cc2N2C[C@@H]3C[C@H]2CN3)n1` [Example 30, N-(2-((1S,4S)-2,5-Diazabicyclo[2.2.1]heptan-2-yl)-5-fluoro-4-(morpholinomethyl)phenyl)-2-(2-fluoro-6-methoxyphenyl)pyrimidine-4-carboxamide] displayed a Ki below 100 nM.

For `COc1cccc(F)c1-c1nccc(C(=O)Nc2cc(F)c(N3CCC3)cc2N2C[C@@H]3C[C@H]2CN3)n1` [Example 29, N-(4-(Azetidin-1-yl)-2-((1S,4S)-2,5-diazabicyclo[2.2.1]heptan-2-yl)-5-fluorophenyl)-2-(2-fluoro-6-methoxyphenyl)pyrimidine-4-carboxamide], the inhibition constant (Ki) was below 100 nM.
